In series [1] the test system is wt mice. Description: Propranolol treatment of wt mice. The series is classed as in vivo, mouse. As for the experimental part: (§1) Wildtype (C57BL/6J) and mutant (C57BL/6J A^y/a, C57BL/6J ob/ob) mice were obtained from the Jackson laboratory and adrenal medullectomized mice from Harlan Tecklad laboratory. Dbh−/− mice were rescued as previously described (Thomas et al., 1998, Neurochem 70:2468-2476). Isoproterenol (Sigma) was injected intraperitoneally (ip) once daily for 6 weeks at 30 mg/kg (wt) or 3 mg/kg (ob/ob). Propranolol (Sigma) was added to the drinking water at a concentration of 0.5 g/l. For ICV infusion, a 28-gauge cannula (Brain infusion kit II, Alza) was implanted into the third ventricle as previously described infusing human leptin (Sigma) at 8 ng/hr or MT-II at 125 ng/hr (Phoenix Pharmaceuticals) for 28 days (see, e.g., Ducy et al., 2000, Cell 100: 197-207). The cannula was connected to an osmotic pump (Alza) placed in the dorsal subcutaneous space of the animal. For parabiosis longitudinal incisions were made in the skin and in the peritoneal cavity along one side on each mouse. Edges of the incisions were connected by suture to induce coelioanastomosis. Cross-circulation was quantified by injecting 1 ml/kg 0.25% Evans blue into the tail vein of one mouse of the parabiosed pair. After 30 min. blood was collected from both mice by retroorbital bleeding and the blood exchange rate was calculated according to standard techniques (see, e.g., Harris & Martin, 1984, Am J Physiol 247:R380-386). […] Two weeks after parabiosis a pump delivering leptin ICV in one animal of each pair was implanted. For GTG lesioning, 4-week-old C57BL/6J mice were given a single ip injection of either PBS or GTG (0.5 mg/g). For MSG lesioning, 2 day-old C57BL/6J pups were injected daily subcutaneously with either PBS or MSG (2 mg/g) for 10 days.
Histological analyses were performed on undecalcified sections stained by von Kossa and counterstained by von Gieson (see, e.g., Ducy et al., 2000, Cell 100:197-207). Static and dynamic histomorphometric analyses were performed according to standard protocols (see, e.g., Parfitt et al., 1987, J Bone Miner Res 6:595-610) using the Osteomeasure Analysis System (Osteometrics, Atlanta). Six to 12 animals were analyzed for each group. Statistical significance was assessed by Student's t test.
(§2) Primary osteoblast cultures were established as previously described (see, e.g., Ducy et al., 2000, Cell 100: 197-207) and maintained in αMEM/0.1 mg/ml ascorbic acid supplemented with 10% FBS. SaOS-2 were grown in MEM/10% FBS. For cAMP assay confluent cultures were incubated with serum free medium containing 100 μM IBMX (3-isobutyl-1-methylxanthine, Sigma) for 8 minutes before PBS, PTH(1-34) (Bachem), isoproterenol, norepinephrine, phenylephrine (Sigma) or propranolol were added for 5 min. Intracellular cAMP concentration was measured by immunoassay (R&D Systems). For gene expression analyses, primary osteoblasts were treated for 72 hours with appropriate drugs in 0.1% FBS. Hormone serum levels were quantified using immunoassays kits from Peninsula Laboratories (Insulin) or Alpco Diagnostics (leptin). Deoxypyridinoline cross-links and Creatinine were measured in morning urines using the Quidel kits. a1(I) leptin bioactivity was verified by cotransfection of 293 cells expressing ObRb with a STAT3-responsive-luc reporter construct, pSVβgal plasmid and a1(I) leptin expression vector or mock. Twenty-four hours later luciferase and β-galactosidase activities were measured. Data represents ratios of luciferase/β-galactosidase activities, and values are mean of 6 independent transfection experiments.
The most important biomedical requirement for regulation of bone formation by the SNS is that β-adrenergic antagonists (β blockers) should increase bone mass by increasing bone formation. To address this point, wt mice were treated for 5 weeks with propranolol (0.4 mg/day). […] In some propranolol-treated mice the bone volume matched what is observed in ob/ob mice. […]

Series [2] has as its system human SaOS-2 osteoblastic cells. In words: cAMP production in human SaOS-2 osteoblastic cells. The series is classed as cell-based. The conditions noted are these: SaOS-2, added to β-adrenergic receptor agonists. On the procedure:
as §2
For a sympathetic regulation of bone formation to exist several requirements have to be fulfilled. The first one is that functional adrenergic receptors are present on osteoblasts. […] No other adrenergic receptor subtype could be detected. […] Thus, to assess the biologic relevance of the presence of β2-adrenergic receptors on osteoblasts, these cells were treated with isoproterenol, a β-adrenergic agonist, alone or in the presence of propranolol, a β-adrenergic receptor antagonist; with norepinephrine, the natural ligand of β-adrenergic receptors; with phenylephrine, an α-adrenergic agonist or with vehicle and measured cAMP production. […]

The test system of series [3] is murine primary osteoblasts. In words: cAMP production in murine primary osteoblasts. As to conditions: added with isoproterenol or norepinephrine. The series is classed as cell-based, mouse. As for the experimental part: as §2
For a sympathetic regulation of bone formation to exist several requirements have to be fulfilled. The first one is that functional adrenergic receptors are present on osteoblasts. […] Immunohistochemical analysis of long bones from transgenic mice expressing LacZ under the control of the osteoblast-specific fragment of the a1(I) collagen promoter verified the presence of β2-adrenergic receptors on osteoblasts (FIG. 13B). No other adrenergic receptor subtype could be detected. […] Electron micrographs confirmed the presence of unmyelinated peripheral nerve axons coursing through the marrow adjacent to bone trabeculae and to osteoblasts (FIG. 13E). β-adrenergic receptors are G-coupled receptors that signal through the cAMP pathway (see, e.g., Benovic et al., 1988, Annu Rev Cell Biol 4:405-428). Thus, to assess the biologic relevance of the presence of β2-adrenergic receptors on osteoblasts, these cells were treated with isoproterenol, a β-adrenergic agonist, alone or in the presence of propranolol, a β-adrenergic receptor antagonist; with norepinephrine, the natural ligand of β-adrenergic receptors; with phenylephrine, an α-adrenergic agonist or with vehicle and measured cAMP production. As a positive control, parathyroid hormone (PTH) that binds to another G-coupled receptor present in osteoblasts was used (Gardella & Juppner, 2001, Trends Endocrinol Metab 12:210-217.). […] These effects were abolished by propranolol treatment. […]
On the technique in general: cAMP levels reflect the balance of adenylyl cyclase and phosphodiesterase activity.

The test system of series [4] is primary osteoblasts. In words: Gene expression and apoptosis in primary osteoblasts. The class given is cell-based, mouse. The conditions noted are these: primary osteoblasts, isoproterenol plus propranolol. On the procedure: as §2
To elucidate the bases of the antiosteogenic effect of isoproterenol in vivo, osteoblast proliferation, gene expression and apoptosis were studied.

For series [5], the system named is rats. The conditions noted are these: rats treated with propranolol; cited from earlier work.
The test system of series [6] is ovariectomized wt mice. Description: Propranolol treatment of ovariectomized wt mice. The class given is in vivo, mouse. As for the experimental part: as §1
To test if it was the case ovariectomy in 6 week-old wt mice was performed and the mice were treated for 7 weeks with propranolol or vehicle. Estrogen depletion by ovariectomy decreased bone mass in vehicle-treated mice. […] This latter result underscores the physiologic and therapeutic importance of the sympathetic regulation of bone formation.

Structures are written as SMILES.

In the case of `CC(C)NCC(O)COc1cccc2ccccc12` (stereo not shown) [propranolol], the “Bone Volume” value in series [1] (Wild-type + propranolol) is “High”. In addition, the “hyperinsulinism or other hormonal modifications” value in series [1] (wt mice) is listed as “did not cause”. For the same compound, in series [1] (wt mice, 5 weeks, 0.4 mg/day), the “body weight and fat pad weight” value is “remained normal”; the bone formation rate result is recorded as “increase”; the number of osteoblasts result is recorded as “increase”. In series [1] (wt mice, 5 weeks, 0.4 mg/day (drinking water 0.5 g/l)), the “bone mass in vertebrae and long bones” value is “significant increase”. The “effect on agonist-induced cAMP production” value in series [2] is reported as “inhibited”. In series [3], the “effect on agonist-induced cAMP production” value is “abolished”. In addition, in series [4], the “inhibitory effect of isoproterenol on gene expression” value was “reversed”. In series [5], the “femoral metaphyseal mineral apposition rates” value was “Increased”. For the same compound, in series [6] (ovariectomized mice, 7 weeks), the “bone formation rate vs control ovariectomized mice” value was “striking increase” and the “osteoblast number vs control ovariectomized mice” value is reported as “striking increase”. The bone mass entry in series [6] (ovariectomy at 6 weeks of age, treated for 7 weeks) is given as “normal”.
